Experimental data published in PubChem BioAssay (NCI).
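GI50: concentration for 50% inhibition of growth. TGI is the concentration that stops growth completely.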

Columns and labels:
Assay in all cases: growth of human tumour cells (NCI), 384-well format
NCI-H460 NSCLC = system: NCI-H460 NSCLC
SF-268 CNS = system: SF-268 CNS
786-0 renal = system: 786-0 renal
SNB-19 CNS = system: SNB-19 CNS
HCT-15 colon = system: HCT-15 colon
MDA-MB-435 melanoma = system: MDA-MB-435 melanoma
SW-620 colon = system: SW-620 colon
SR leukemia = system: SR leukemia
SF-295 CNS = system: SF-295 CNS
MCF7 breast = system: MCF7 breast
SNB-75 CNS = system: SNB-75 CNS
NCI-H322M lung = system: NCI-H322M lung
A549 NSCLC = system: A549 NSCLC
MDA-MB-231 breast = system: MDA-MB-231 breast
OVCAR-4 ovarian = system: OVCAR-4 ovarian
UACC-62 melanoma = system: UACC-62 melanoma
BT-549 breast = system: BT-549 breast
SK-MEL-5 melanoma = system: SK-MEL-5 melanoma
SK-MEL-28 melanoma = system: SK-MEL-28 melanoma
MDA-MB-468 breast = system: MDA-MB-468 breast
IGROV1 ovarian = system: IGROV1 ovarian
NCI/ADR-RES ovarian = system: NCI/ADR-RES ovarian
NCI-H23 lung = system: NCI-H23 lung
COLO 205 colon = system: COLO 205 colon
CCRF-CEM leukemia = system: CCRF-CEM leukemia
HL-60(TB) leukemia = system: HL-60(TB) leukemia
MALME-3M melanoma = system: MALME-3M melanoma
SK-OV-3 ovarian = system: SK-OV-3 ovarian
UACC-257 melanoma = system: UACC-257 melanoma
EKVX NSCLC = system: EKVX NSCLC
HT29 colon = system: HT29 colon
UO-31 renal = system: UO-31 renal
LOX IMVI melanoma = system: LOX IMVI melanoma
OVCAR-3 ovarian = system: OVCAR-3 ovarian
MOLT-4 leukemia = system: MOLT-4 leukemia
KM12 colon = system: KM12 colon
HOP-62 NSCLC = system: HOP-62 NSCLC
SF-539 CNS = system: SF-539 CNS
A498 renal = system: A498 renal
HCC-2998 colon = system: HCC-2998 colon
OVCAR-8 ovarian = system: OVCAR-8 ovarian
PC-3 prostate = system: PC-3 prostate
DU-145 prostate = system: DU-145 prostate
RXF 393 renal = system: RXF 393 renal
OVCAR-5 ovarian = system: OVCAR-5 ovarian
T-47D breast = system: T-47D breast
HS 578T breast = system: HS 578T breast
SN12C renal = system: SN12C renal
RPMI-8226 leukemia = system: RPMI-8226 leukemia
NCI-H226 lung = system: NCI-H226 lung
CAKI-1 renal = system: CAKI-1 renal
ACHN renal = system: ACHN renal
K-562 leukemia = system: K-562 leukemia
M14 melanoma = system: M14 melanoma
NCI-H522 lung = system: NCI-H522 lung

## C=CC(=O)N1C[C@H](COc2nc(Nc3cnn(C)c3)nc3[nH]cc(Cl)c23)[C@@H](OC)C1
NCI-H460 NSCLC
  GI50: 1.81 µM
  TGI: 11.6 µM
SF-268 CNS
  GI50: 1.93 µM
  TGI: 12.3 µM
786-0 renal
  GI50: 4.84 µM
  TGI: 41.8 µM
SNB-19 CNS
  GI50: 5.2 µM
  TGI: 23.1 µM
HCT-15 colon
  GI50: 2.93 µM
  TGI: 12.3 µM
MDA-MB-435 melanoma
  GI50: 4.27 µM
  TGI: 20.9 µM
SW-620 colon
  GI50: 0.673 µM
  TGI: 2.11 µM
SR leukemia
  GI50: 0.19 µM
  TGI: 0.351 µM
SF-295 CNS
  GI50: 13.3 µM
  TGI: 31.5 µM
MCF7 breast
  GI50: 2.02 µM
  TGI: 15.6 µM
SNB-75 CNS
  GI50: 0.467 µM
  TGI: 1.88 µM
NCI-H322M lung
  GI50: 1.39 µM
  TGI: 13.8 µM
A549 NSCLC
  GI50: 2.25 µM
  TGI: 13.1 µM
MDA-MB-231 breast
  GI50: 2.78 µM
  TGI: > 100 µM
OVCAR-4 ovarian
  GI50: 1.75 µM
  TGI: 23.6 µM
UACC-62 melanoma
  GI50: 0.912 µM
  TGI: 13.5 µM
BT-549 breast
  GI50: 0.47 µM
  TGI: 10.3 µM
SK-MEL-5 melanoma
  GI50: 3.01 µM
  TGI: 12.2 µM
SK-MEL-28 melanoma
  GI50: 3.82 µM
  TGI: 16.8 µM
MDA-MB-468 breast
  GI50: 0.267 µM
  TGI: 0.628 µM
IGROV1 ovarian
  GI50: 0.852 µM
  TGI: 3.31 µM
NCI/ADR-RES ovarian
  GI50: 29.3 µM
  TGI: > 100 µM
NCI-H23 lung
  GI50: 1.59 µM
  TGI: 9.36 µM
COLO 205 colon
  GI50: 0.54 µM
  TGI: 11.1 µM
CCRF-CEM leukemia
  GI50: 0.242 µM
  TGI: 0.544 µM
HL-60(TB) leukemia
  GI50: 0.408 µM
  TGI: 1.55 µM
MALME-3M melanoma
  GI50: 8.86 µM
  TGI: 21.2 µM
SK-OV-3 ovarian
  GI50: 0.556 µM
  TGI: 5.05 µM
UACC-257 melanoma
  GI50: 5.21 µM
  TGI: 17.1 µM
EKVX NSCLC
  GI50: 1.31 µM
  TGI: 7.08 µM
HT29 colon
  GI50: 4.01 µM
  TGI: > 100 µM
UO-31 renal
  GI50: 7.62 µM
  TGI: > 100 µM
LOX IMVI melanoma
  GI50: 1.52 µM
  TGI: 11.6 µM
OVCAR-3 ovarian
  GI50: 2.72 µM
  TGI: 23.6 µM
MOLT-4 leukemia
  GI50: 0.308 µM
  TGI: 0.833 µM
KM12 colon
  GI50: 0.287 µM
  TGI: 14.3 µM
HOP-62 NSCLC
  GI50: 4.05 µM
  TGI: 26.5 µM
SF-539 CNS
  GI50: 1.21 µM
  TGI: 3.2 µM
A498 renal
  GI50: 0.584 µM
  TGI: 21.4 µM
HCC-2998 colon
  GI50: 3.86 µM
  TGI: 15 µM
OVCAR-8 ovarian
  GI50: 4.15 µM
  TGI: 18.7 µM
PC-3 prostate
  GI50: 4.53 µM
  TGI: 20.5 µM
DU-145 prostate
  GI50: 2.26 µM
  TGI: > 100 µM
RXF 393 renal
  GI50: 5.76 µM
  TGI: 22.3 µM
OVCAR-5 ovarian
  GI50: 5.34 µM
  TGI: > 100 µM
T-47D breast
  GI50: 4.63 µM
  TGI: 18 µM
HS 578T breast
  GI50: 1.37 µM
  TGI: 4.19 µM
SN12C renal
  GI50: 0.633 µM
  TGI: 12.8 µM
RPMI-8226 leukemia
  GI50: 1 µM
  TGI: 3.47 µM
NCI-H226 lung
  GI50: 0.394 µM
  TGI: 9.42 µM
CAKI-1 renal
  GI50: 1.17 µM
  TGI: 11.9 µM
ACHN renal
  GI50: 1.94 µM
  TGI: 15.4 µM
K-562 leukemia
  GI50: 2.14 µM
  TGI: 12.3 µM
M14 melanoma
  GI50: 2.17 µM
  TGI: 18.2 µM
NCI-H522 lung
  GI50: 0.281 µM
  TGI: 0.858 µM
